Results taken from publication PMC12396409, “Screening and hit evaluation of a microbial metabolite library against the pathogenic Plasmodium falciparum and Toxoplasma gondii parasites” (International Journal for Parasitology: Drugs and Drug …, 2025).
Like-named read-outs stand apart in the source and are kept apart here. Where a SMILES comes first, the peptide text is derived from it. Bridges are numbered along the chain shown (N, C = ends). [ ]: non-standard residue; d: D form. The star is where a group is joined. Ileψ(thiazoline)Cys = CC[C@H](C)[C@H](N)C1=N[C@H](C(=O)*)CS1; dOrn = NCCC[C@@H](N)C(=O)O

What was measured:
[1] = test system: T. gondii RH strain (RH-Tub-eYFP) tachyzoites; assay: microbe, parasite or virus in culture; format: cell-based, Toxoplasma gondii
[2] = test system: P. falciparum 3D7 parasites; assay: P. falciparum growth inhibition assay, 2-cycle (120 h treatment), delayed-death screen and dose-response; format: cell-based, Plasmodium falciparum; conditions: for activity at 2 µg/mL: Plasmodium falciparum
[3] = test system: P. falciparum 3D7 parasites; assay: P. falciparum growth inhibition assay, 1-cycle (72 h treatment), SYBR DNA staining (library screen at 2 μg/mL and dose-response); format: cell-based, Plasmodium falciparum; conditions: for activity at 2 µg/mL: Plasmodium falciparum
[4] = Toxoplasma gondii, 72 h, library screen at 2 μg/mL, 72 h, % growth, replicate 1; read-out: Tg_72h_%Growth_Rep1
[5] = Toxoplasma gondii, 72 h, library screen at 2 μg/mL, 72 h, % growth, replicate 2; read-out: Tg_72h_%Growth_Rep2
[6] = T. gondii, 72 h, screen at 2 μg/mL, replicate 1
[7] = T. gondii, 72 h, screen at 2 μg/mL, replicate 2
[8] = P. falciparum, 120 h, screen at 2 μg/mL, replicate 1
[9] = P. falciparum, 120 h, screen at 2 μg/mL, replicate 2
[10] = P. falciparum, 72 h, screen at 2 μg/mL, replicate 1
[11] = P. falciparum, 72 h, screen at 2 μg/mL, replicate 2
[12] = Toxoplasma gondii, 72 h, T. gondii, 72 h, parasite screen 2 μg/mL, % growth, replicate 1; read-out: Tg_72h_%Growth_Rep1
[13] = Toxoplasma gondii, 72 h, T. gondii, 72 h, parasite screen 2 μg/mL, % growth, replicate 2; read-out: Tg_72h_%Growth_Rep2
[14] = 3D7, P. falciparum, 120 h, parasite screen 2 μg/mL, % growth, replicate 1, read-out: Pf_120h_%Growth_Rep1
[15] = 3D7, P. falciparum, 120 h, parasite screen 2 μg/mL, % growth, replicate 2, read-out: Pf_120h_%Growth_Rep2
[16] = 3D7, P. falciparum, 72 h, parasite screen 2 μg/mL, % growth, replicate 1, read-out: Pf_72h_%Growth_Rep1
[17] = 3D7, P. falciparum, 72 h, parasite screen 2 μg/mL, % growth, replicate 2, read-out: Pf_72h_%Growth_Rep2
[18] = library screen at 2 μg/mL, 72 h, % growth, replicate 1
[19] = library screen at 2 μg/mL, 72 h, % growth, replicate 2
[20] = T. gondii, 72 h, parasite screen 2 μg/mL, % growth, replicate 1
[21] = T. gondii, 72 h, parasite screen 2 μg/mL, % growth, replicate 2
[22] = P. falciparum, 120 h, parasite screen 2 μg/mL, % growth, replicate 1
[23] = P. falciparum, 120 h, parasite screen 2 μg/mL, % growth, replicate 2
[24] = P. falciparum, 72 h, parasite screen 2 μg/mL, % growth, replicate 1
[25] = P. falciparum, 72 h, parasite screen 2 μg/mL, % growth, replicate 2
[26] = T. gondii RH, 72 h, library screen at 2 μg/mL, % growth, replicate 1
[27] = T. gondii RH, 72 h, library screen at 2 μg/mL, % growth, replicate 2
[28] = P. falciparum 3D7, 120 h, library screen at 2 μg/mL, % growth, replicate 1
[29] = P. falciparum 3D7, 120 h, library screen at 2 μg/mL, % growth, replicate 2
[30] = P. falciparum 3D7, 72 h, library screen at 2 μg/mL, % growth, replicate 1
[31] = P. falciparum 3D7, 72 h, library screen at 2 μg/mL, % growth, replicate 2

Molecule: CC[C@H](C)[C@H](N)C1=N[C@H](C(=O)N[C@@H](CC(C)C)C(=O)N[C@H](CCC(=O)O)C(=O)N[C@H](C(=O)N[C@H]2CCCCNC(=O)[C@H](CC(N)=O)NC(=O)[C@@H](CC(=O)O)NC(=O)[C@H](Cc3cnc[nH]3)NC(=O)[C@@H](Cc3ccccc3)NC(=O)[C@H]([C@@H](C)CC)NC(=O)[C@@H](CCCN)NC2=O)[C@@H](C)CC)CS1 [Bacitracin A] ({Ileψ(thiazoline)Cys}-L[dE]IK[dOrn]I[dF]H[dD]N; lactam 4-C)
- percent parasite growth at 2 µg/mL [1, 4]: 81.4%
- percent parasite growth at 2 µg/mL [1, 5]: 89.8%
- activity at 2 µg/mL ([2]; 3D7, library screen at 2 μg/mL, 120 h, % growth, replicate 1, read-out: Pf_120h_%Growth_Rep1): 59.9%
- activity at 2 µg/mL ([2]; 3D7, library screen at 2 μg/mL, 120 h, % growth, replicate 2, read-out: Pf_120h_%Growth_Rep2): 94.6%
- activity at 2 µg/mL ([3]; 3D7, library screen at 2 μg/mL, 72 h, % growth, replicate 1, read-out: Pf_72h_%Growth_Rep1): 27.2%
- activity at 2 µg/mL ([3]; 3D7, library screen at 2 μg/mL, 72 h, % growth, replicate 2, read-out: Pf_72h_%Growth_Rep2): 89.3%

Molecule: C=C[C@@](C)(CCC=C(C)C)c1ccc2c3c(c[nH]c13)C[C@@H](CO)NC(=O)[C@H](C(C)C)N2C [Teleocidin A1]
- Tg_72h_%Growth_Rep1 [1, 6]: 75.89%
- Tg_72h_%Growth_Rep2 [1, 7]: 83.10%
- Pf_120h_%Growth_Rep1 [2, 8]: 8.14%
- Pf_120h_%Growth_Rep2 [2, 9]: 11.61%
- Pf_72h_%Growth_Rep1 [3, 10]: 6.74%
- Pf_72h_%Growth_Rep2 [3, 11]: -5.43%

Molecule: O=C(O)c1ccc[nH]1 [Pyrrole-2-carboxylic acid]
- percent parasite growth at 2 µg/mL [1, 12]: 130%
- percent parasite growth at 2 µg/mL [1, 13]: 86.8%
- activity at 2 µg/mL [2, 14]: 88.6%
- activity at 2 µg/mL [2, 15]: 136%
- activity at 2 µg/mL [3, 16]: 86.7%
- activity at 2 µg/mL [3, 17]: 115%

Molecule: C/C=C/C=C/[C@H]1Cc2cc(O)cc(O)c2O1 [Asperfuran]
- Tg_72h_%Growth_Rep1 [1, 18]: 65.57%
- Tg_72h_%Growth_Rep2 [1, 19]: 59.68%
- Pf_120h_%Growth_Rep1 ([2]; library screen at 2 μg/mL, 120 h, % growth, replicate 1): 70.89%
- Pf_120h_%Growth_Rep2 ([2]; library screen at 2 μg/mL, 120 h, % growth, replicate 2): 94.19%
- Pf_72h_%Growth_Rep1 [3, 18]: 81.82%
- Pf_72h_%Growth_Rep2 [3, 19]: 86.77%

Molecule: Cc1ncc(-c2c[nH]c3ccccc23)o1 [BIA-P1070]
- Tg_72h_%Growth_Rep1 ([1]; T. gondii, 72 h, parasite screen at 2 μg/mL, % growth, replicate 1): 139.44%
- Tg_72h_%Growth_Rep2 ([1]; T. gondii, 72 h, parasite screen at 2 μg/mL, % growth, replicate 2): 88.28%
- Pf_120h_%Growth_Rep1 ([2]; P. falciparum 3D7, 120 h, parasite screen at 2 μg/mL, % growth, replicate 1): 92.74%
- Pf_120h_%Growth_Rep2 ([2]; P. falciparum 3D7, 120 h, parasite screen at 2 μg/mL, % growth, replicate 2): 139.06%
- Pf_72h_%Growth_Rep1 ([3]; P. falciparum 3D7, 72 h, parasite screen at 2 μg/mL, % growth, replicate 1): 82.71%
- Pf_72h_%Growth_Rep2 ([3]; P. falciparum 3D7, 72 h, parasite screen at 2 μg/mL, % growth, replicate 2): 88.10%

Molecule: C=CC(C)(C)[C@@]12C[C@H]3C(=O)N/C(=C/c4c[nH]cn4)C(=O)N3[C@@H]1Nc1ccccc12 [Roquefortine C]
- percent parasite growth at 2 µg/mL ([1]; Toxoplasma gondii; T. gondii, 72 h, parasite screen 2 μg/mL, % growth, replicate 1; read-out: Tg_72h_%Growth_Rep1): 112%
- percent parasite growth at 2 µg/mL ([1]; Toxoplasma gondii; T. gondii, 72 h, parasite screen 2 μg/mL, % growth, replicate 2; read-out: Tg_72h_%Growth_Rep2): 89.5%
- activity at 2 µg/mL [2, 14]: 73.1%
- activity at 2 µg/mL [2, 15]: 98.8%
- activity at 2 µg/mL [3, 16]: 76.2%
- activity at 2 µg/mL [3, 17]: 78.8%

Molecule: C/C=C/c1cc2c(c(=O)o1)[C@H](O)[C@@H](O)[C@H](C)O2 [Radicinol]
- Tg_72h_%Growth_Rep1 [1, 20]: 118.35%
- Tg_72h_%Growth_Rep2 [1, 21]: 83.89%
- Pf_120h_%Growth_Rep1 [2, 22]: 82.58%
- Pf_120h_%Growth_Rep2 [2, 23]: 123.93%
- Pf_72h_%Growth_Rep1 [3, 24]: 83.85%
- Pf_72h_%Growth_Rep2 [3, 25]: 102.30%

Molecule: CCCC(=O)OC1C(C)OC(OC2C(C)OC(OC3C(CC=O)CC(C)C(O)C=CC=CCC(C)OC(=O)CC(OC(C)=O)C3OC)C(O)C2N(C)C)CC1(C)O (stereo not drawn) [BIA-L1364]
- Tg_72h_%Growth_Rep1 [1, 26]: 19.43%
- Tg_72h_%Growth_Rep2 [1, 27]: 27.43%
- Pf_120h_%Growth_Rep1 [2, 28]: 4.30%
- Pf_120h_%Growth_Rep2 [2, 29]: -1.28%
- Pf_72h_%Growth_Rep1 [3, 30]: 50.48%
- Pf_72h_%Growth_Rep2 [3, 31]: 43.27%

Molecule: COC1=C(N)C(=O)c2nc(-c3nc(C(=O)O)c(C)c(-c4ccc(OC)c(OC)c4O)c3N)ccc2C1=O [Streptonigrin]
- percent parasite growth at 2 µg/mL [1, 12]: 3.6%
- percent parasite growth at 2 µg/mL [1, 13]: 2.59%
- activity at 2 µg/mL ([2]; 3D7, 120 h, P. falciparum, 120 h, parasite screen 2 μg/mL, % growth, replicate 1, read-out: Pf_120h_%Growth_Rep1): 43.2%
- activity at 2 µg/mL ([2]; 3D7, 120 h, P. falciparum, 120 h, parasite screen 2 μg/mL, % growth, replicate 2, read-out: Pf_120h_%Growth_Rep2): 6.18%
- activity at 2 µg/mL ([3]; 3D7, 72 h, P. falciparum, 72 h, parasite screen 2 μg/mL, % growth, replicate 1, read-out: Pf_72h_%Growth_Rep1): 2.61%
- activity at 2 µg/mL ([3]; 3D7, 72 h, P. falciparum, 72 h, parasite screen 2 μg/mL, % growth, replicate 2, read-out: Pf_72h_%Growth_Rep2): -8.29%

Molecule: C=CC(C)(C)[C@@]12C[C@H]3C(=O)N4[C@@H](C[C@@]5(C(C)(C)C=C)c6ccccc6N[C@@H]45)C(=O)N3[C@@H]1Nc1ccccc12 [Amauromine]
- percent parasite growth at 2 µg/mL [1, 4]: 139%
- percent parasite growth at 2 µg/mL [1, 5]: 104%
- activity at 2 µg/mL ([2]; 3D7, 120 h, library screen at 2 μg/mL, 120 h, % growth, replicate 1, read-out: Pf_120h_%Growth_Rep1): 7.96%
- activity at 2 µg/mL ([2]; 3D7, 120 h, library screen at 2 μg/mL, 120 h, % growth, replicate 2, read-out: Pf_120h_%Growth_Rep2): 0.67%
- activity at 2 µg/mL ([3]; 3D7, 72 h, library screen at 2 μg/mL, 72 h, % growth, replicate 1, read-out: Pf_72h_%Growth_Rep1): 3.52%
- activity at 2 µg/mL ([3]; 3D7, 72 h, library screen at 2 μg/mL, 72 h, % growth, replicate 2, read-out: Pf_72h_%Growth_Rep2): 3.82%

Molecule: CCC(C)C1OC2(CCC1C)CC1CC(CC=C(C)C(OC3CC(OC)C(OC4CC(OC)C(O)C(C)O4)C(C)O3)C(C)C=CC=C3COC4C(O)C(C)=CC(C(=O)O1)C34O)O2 (stereo not drawn) [BIA-I1119]
- Tg_72h_%Growth_Rep1 [1, 26]: 98.36%
- Tg_72h_%Growth_Rep2 [1, 27]: 101.63%
- Pf_120h_%Growth_Rep1 [2, 28]: 82.92%
- Pf_120h_%Growth_Rep2 [2, 29]: 106.39%
- Pf_72h_%Growth_Rep1 [3, 30]: 86.44%
- Pf_72h_%Growth_Rep2 [3, 31]: 71.84%

Molecule: Cc1cc(O)cc(=O)o1 [BIA-H1736]
- Tg_72h_%Growth_Rep1 [1, 26]: 113.92%
- Tg_72h_%Growth_Rep2 [1, 27]: 93.67%
- Pf_120h_%Growth_Rep1 [2, 28]: 102.52%
- Pf_120h_%Growth_Rep2 [2, 29]: 94.50%
- Pf_72h_%Growth_Rep1 [3, 30]: 86.06%
- Pf_72h_%Growth_Rep2 [3, 31]: 85.31%

Molecule: C[C@@H]1CC[C@H]2C(C)(C)[C@H](O)CC[C@]2(C)[C@@]12Cc1c(O)cc3c(c1O2)CNC3=O [Stachybotrylactam]
- Tg_72h_%Growth_Rep1 [1, 20]: 105.88%
- Tg_72h_%Growth_Rep2 [1, 21]: 102.71%
- Pf_120h_%Growth_Rep1 [2, 22]: 94.74%
- Pf_120h_%Growth_Rep2 [2, 23]: 25.01%
- Pf_72h_%Growth_Rep1 [3, 24]: 26.98%
- Pf_72h_%Growth_Rep2 [3, 25]: 44.84%

Molecule: Telomycin
- Tg_72h_%Growth_Rep1 [1, 6]: 151.31%
- Tg_72h_%Growth_Rep2 [1, 7]: 89.83%
- Pf_120h_%Growth_Rep1 [2, 8]: 103.58%
- Pf_120h_%Growth_Rep2 [2, 9]: 79.40%
- Pf_72h_%Growth_Rep1 [3, 10]: 87.11%
- Pf_72h_%Growth_Rep2 [3, 11]: 125.88%
